Source: patent US4468511A, “C-20- And C-23-Modified macrolide derivatives” (Eli Lilly and Company, priority 1983, dated 1984)
≈ marks a conversion by molar mass, not a printed value. Like-named read-outs stand apart in the source and are kept apart here.

Assays:
Escherichia coli EC14 = experiment: MIC, standard agar-dilution assay; assay type: cell-based; settings: agar-dilution; Escherichia coli EC14; read-out: MIC
Method: (§1) Certain of the derivatives are active against some gram-negative bacteria, such as Pasteurella species. The MIC's in Table II were determined by standard agar-dilution assays. The MIC's in Table III were obtained using a conventional broth-dilution microtiter test.

Escherichia coli TEM = experiment: MIC, standard agar-dilution assay; assay type: cell-based; settings: agar-dilution; Escherichia coli TEM; read-out: MIC
Method: as §1

[1] = tested on: Klebsiella pneumoniae KAE; experiment: MIC, standard agar-dilution assay; assay type: cell-based; settings: agar-dilution; Klebsiella pneumoniae KAE; read-out: MIC
Method: as §1

[2] = tested on: Klebsiella pneumoniae X26; experiment: MIC, standard agar-dilution assay; assay type: cell-based
Method: as §1

[3] = tested on: Staphylococcus aureus V41; experiment: MIC, standard agar-dilution assay; assay type: cell-based; settings: Staphylococcus aureus, V41
Method: as §1

[4] = tested on: Staphylococcus aureus X1.1; experiment: MIC, standard agar-dilution assay; assay type: cell-based
Method: as §1

[5] = tested on: Streptococcus Group D X66; experiment: MIC, standard agar-dilution assay; assay type: cell-based
Method: as §1

[6] = tested on: Streptococcus pneumoniae Park I; experiment: MIC, standard agar-dilution assay; assay type: cell-based; settings: Streptococcus pneumoniae
Method: as §1

[7] = tested on: Streptococcus pyogenes 9960; experiment: MIC, standard agar-dilution assay; assay type: cell-based
Method: as §1

[8] = tested on: Streptococcus pyogenes C203; experiment: MIC, standard agar-dilution assay; assay type: cell-based
Method: as §1

[9] = tested on: Haemophilus influenzae 76; experiment: MIC, standard agar-dilution assay; assay type: cell-based; settings: Haemophilus influenzae, 76
Method: (§2) The MIC's in Table II were determined by standard agar-dilution assays. The MIC's in Table III were obtained using a conventional broth-dilution microtiter test.

[10] = tested on: Haemophilus influenzae C.L.; experiment: MIC, standard agar-dilution assay; assay type: cell-based
Method: as §2

[11] = tested on: Staphylococcus aureus X400; experiment: MIC, standard agar-dilution assay; assay type: cell-based
Method: as §2

[12] = tested on: Staphylococcus epidermidis EPI2; experiment: MIC, standard agar-dilution assay; assay type: cell-based
Method: as §2

[13] = tested on: Staphylococcus aureus S13E; experiment: microbe, parasite or virus in culture; assay type: cell-based
Method: as §2

[14] = tested on: Staphylococcus epidermidis EPI1; experiment: microbe, parasite or virus in culture; assay type: cell-based; settings: agar-dilution; Staphylococcus epidermidis EPI1; read-out: MIC
Method: as §2

[15] = tested on: Mycoplasma gallisepticum 34159; experiment: MIC, conventional broth-dilution microtiter test; assay type: cell-based; settings: Mycoplasmoides gallisepticum; broth-dilution microtiter; Mycoplasma gallisepticum 34159, Resistant strain; read-out: MIC
Method: as §1

[16] = tested on: Mycoplasma gallisepticum 41313; experiment: MIC, conventional broth-dilution microtiter test; assay type: cell-based; settings: Mycoplasmoides gallisepticum; broth-dilution microtiter; Mycoplasma gallisepticum 41313, Resistant strain; read-out: MIC
Method: as §1

Mycoplasma gallisepticum = experiment: MIC, conventional broth-dilution microtiter test; assay type: cell-based; settings: Mycoplasmoides gallisepticum; broth-dilution microtiter; Mycoplasma gallisepticum; read-out: MIC
Method: as §1

Mycoplasma hyorhinis = experiment: MIC, conventional broth-dilution microtiter test; assay type: cell-based; settings: broth-dilution microtiter; Mycoplasma hyorhinis; read-out: MIC
Method: as §1

Mycoplasma synoviae = experiment: MIC, conventional broth-dilution microtiter test; assay type: cell-based; settings: Mycoplasmopsis synoviae; broth-dilution microtiter; Mycoplasma synoviae; read-out: MIC
Method: as §1

[17] = tested on: Pasteurella hemolytica 22C; experiment: MIC, conventional broth-dilution microtiter test; assay type: cell-based; settings: broth-dilution microtiter; Pasteurella hemolytica 22C; read-out: MIC
Method: as §1

[18] = tested on: Pasteurella hemolytica 23C; experiment: MIC, conventional broth-dilution microtiter test; assay type: cell-based; settings: broth-dilution microtiter; Pasteurella hemolytica 23C; read-out: MIC
Method: as §1

[19] = tested on: Pasteurella hemolytica 41D; experiment: MIC, conventional broth-dilution microtiter test; assay type: cell-based; settings: broth-dilution microtiter; Pasteurella hemolytica 41D; read-out: MIC
Method: as §1

[20] = tested on: Pasteurella multocida 17E; experiment: MIC, conventional broth-dilution microtiter test; assay type: cell-based; settings: broth-dilution microtiter; Pasteurella multocida 17E, Bovine isolate; read-out: MIC
Method: as §1

[21] = tested on: Pasteurella multocida 22A; experiment: MIC, conventional broth-dilution microtiter test; assay type: cell-based; settings: broth-dilution microtiter; Pasteurella multocida 22A; read-out: MIC
Method: as §1

[22] = tested on: Pasteurella multocida 40G; experiment: MIC, conventional broth-dilution microtiter test; assay type: cell-based; settings: broth-dilution microtiter; Pasteurella multocida 40G; read-out: MIC
Method: as §1

[23] = tested on: Pasteurella multocida 60A; experiment: MIC, conventional broth-dilution microtiter test; assay type: cell-based; settings: broth-dilution microtiter; Pasteurella multocida 60A, Avian isolate; read-out: MIC
Method: as §1

[24] = tested on: Pasteurella multocida 68C; experiment: MIC, conventional broth-dilution microtiter test; assay type: cell-based; settings: broth-dilution microtiter; Pasteurella multocida 68C; read-out: MIC
Method: as §1

Staphylococcus aureus = experiment: MIC, conventional broth-dilution microtiter test; assay type: cell-based; settings: broth-dilution microtiter, read-out: MIC
Method: as §1

Streptococcus sp. 80 = experiment: MIC, conventional broth-dilution microtiter test; assay type: cell-based; settings: broth-dilution microtiter; Streptococcus sp. 80; read-out: MIC
Method: as §1

[25] = tested on: Streptococcus pyogenes C203; experiment: Protection of mice experimentally infected with S. pyogenes C203; assay type: in vivo; settings: mg/kg × 2, doses given 1 and 4 hours postinfection
Method: Some of the derivatives of this invention have shown in vivo antimicrobial activity against experimentally-induced infections in laboratory animals. When two doses of test compound were administered to mice experimentally infected with S. pyogenes C203, the activity observed was measured as an ED50 value [effective dose in mg/kg to protect 50% of the test animals: see Warren Wick, et al., J. Bacteriol. 81, 233-235 (1961)].

[26] = agar-dilution, Klebsiella pneumoniae X26, read-out: MIC
[27] = agar-dilution, Streptococcus Group D X66, read-out: MIC
[28] = agar-dilution, Streptococcus 9960, read-out: MIC
[29] = agar-dilution, Haemophilus influenzae C.L., Ampicillin-sensitive strain, read-out: MIC
[30] = Staphylococcus epidermidis, EPI2
[31] = agar-dilution, Staphylococcus aureus X1.1, read-out: MIC
[32] = agar-dilution, Streptococcus pyogenes C203, read-out: MIC
[33] = agar-dilution, Staphylococcus aureus X400, Methicillin-resistant strain, read-out: MIC

Row | Compound | MIC (Escherichia coli EC14) | MIC (Escherichia coli TEM) | MIC [1] | MIC [3] | MIC [6] | MIC [9] | MIC [13] | MIC [14] | MIC [15] | MIC (Mycoplasma gallisepticum) | MIC (Mycoplasma hyorhinis) | MIC (Mycoplasma synoviae) | MIC [17] | MIC [18] | MIC [19] | MIC [20] | MIC [21] | MIC [22] | MIC [23] | MIC [24] | also measured
1 | CCC1OC(=O)CC(O)C(C)C(OC2OC(C)C(O)C(N(C)C)C2O)C(CCN(C)C)CC(C)C(=O)C=CC(C)=CC1CO (stereo not shown) [Compound 2, 20-N-Dimethylamino-20-deoxy-20-dihydro-OMT] | > 128 µg/mL | 128 µg/mL (≈ 204 µM) | > 128 µg/mL | 32 µg/mL (≈ 51.1 µM) | 32 µg/mL (≈ 51.1 µM) | 32 µg/mL (≈ 51.1 µM) | 32 µg/mL (≈ 51.1 µM) | 16 µg/mL (≈ 25.5 µM) | > 50 µg/mL | 50 µg/mL (≈ 79.8 µM) | 50 µg/mL (≈ 79.8 µM) | > 50 µg/mL | 50 µg/mL (≈ 79.8 µM) | 50 µg/mL (≈ 79.8 µM) | 50 µg/mL (≈ 79.8 µM) | 25 µg/mL (≈ 39.9 µM) | 25 µg/mL (≈ 39.9 µM) | 50 µg/mL (≈ 79.8 µM) | 25 µg/mL (≈ 39.9 µM) | 12.5 µg/mL (≈ 19.9 µM) | MIC [2, 26]: 16 µg/mL (≈ 25.5 µM); MIC ([4]; Staphylococcus aureus, X1.1): 32 µg/mL (≈ 51.1 µM); MIC [5, 27]: > 128 µg/mL; MIC [7, 28]: > 128 µg/mL; MIC ([8]; Streptococcus pyogenes, C203): 32 µg/mL (≈ 51.1 µM); MIC [10, 29]: 16 µg/mL (≈ 25.5 µM); MIC ([11]; Staphylococcus aureus, X400): 64 µg/mL (≈ 102 µM); MIC [12, 30]: 64 µg/mL (≈ 102 µM); MIC [16]: 50 µg/mL (≈ 79.8 µM); MIC (Staphylococcus aureus): 50 µg/mL (≈ 79.8 µM); MIC (Streptococcus sp. 80): 25 µg/mL (≈ 39.9 µM)
2 | CCC1OC(=O)CC(O)C(C)C(OC2OC(C)C(O)C(N(C)C)C2O)C(CCNC)CC(C)C(=O)C=CC(C)=CC1CO (stereo not shown) [Compound 3, 20-N-Methylamino-20-deoxy-20-dihydro-OMT] | > 128 µg/mL | 128 µg/mL (≈ 209 µM) | > 128 µg/mL | 64 µg/mL (≈ 104 µM) | 16 µg/mL (≈ 26.1 µM) | 128 µg/mL (≈ 209 µM) | 64 µg/mL (≈ 104 µM) | 32 µg/mL (≈ 52.2 µM) | > 50 µg/mL | 50 µg/mL (≈ 81.6 µM) | > 50 µg/mL | 25 µg/mL (≈ 40.8 µM) | 50 µg/mL (≈ 81.6 µM) | 50 µg/mL (≈ 81.6 µM) | 50 µg/mL (≈ 81.6 µM) | 50 µg/mL (≈ 81.6 µM) | 50 µg/mL (≈ 81.6 µM) | 50 µg/mL (≈ 81.6 µM) | 50 µg/mL (≈ 81.6 µM) | 25 µg/mL (≈ 40.8 µM) | MIC ([2]; Klebsiella pneumoniae, X26): 64 µg/mL (≈ 104 µM); MIC [4, 31]: 32 µg/mL (≈ 52.2 µM); MIC [5, 27]: > 128 µg/mL; MIC [7, 28]: > 128 µg/mL; MIC [8, 32]: 128 µg/mL (≈ 209 µM); MIC ([10]; Haemophilus influenzae): 128 µg/mL (≈ 209 µM); MIC [11, 33]: 128 µg/mL (≈ 209 µM); MIC [12, 30]: 64 µg/mL (≈ 104 µM); MIC (Staphylococcus aureus): 50 µg/mL (≈ 81.6 µM); MIC (Streptococcus sp. 80): 50 µg/mL (≈ 81.6 µM)
3 | CCC1OC(=O)CC(O)C(C)C(OC2OC(C)C(OC3CC(C)(O)C(O)C(C)O3)C(N(C)C)C2O)C(CCNCCc2ccccc2)CC(C)C(=O)C=CC(C)=CC1CO (stereo not shown) [Compound 16] | > 128 µg/mL | > 128 µg/mL | > 128 µg/mL | 32 µg/mL (≈ 37.8 µM) | 4 µg/mL (≈ 4.72 µM) | 16 µg/mL (≈ 18.9 µM) | 32 µg/mL (≈ 37.8 µM) | 16 µg/mL (≈ 18.9 µM) | > 50 µg/mL | 6.25 µg/mL (≈ 7.38 µM) | > 50 µg/mL | 6.25 µg/mL (≈ 7.38 µM) | > 50 µg/mL | > 50 µg/mL | > 50 µg/mL | > 50 µg/mL | > 50 µg/mL | 50 µg/mL (≈ 59 µM) | > 50 µg/mL | > 50 µg/mL | MIC [2, 26]: 128 µg/mL (≈ 151 µM); MIC [4, 31]: 16 µg/mL (≈ 18.9 µM); MIC [5]: 32 µg/mL (≈ 37.8 µM); MIC [7]; 9960: 32 µg/mL (≈ 37.8 µM); MIC [8, 32]: 8 µg/mL (≈ 9.44 µM); MIC [10, 29]: 64 µg/mL (≈ 75.6 µM); MIC [11, 33]: 64 µg/mL (≈ 75.6 µM); MIC ([12]; agar-dilution, Staphylococcus epidermidis EPI2, read-out: MIC): 64 µg/mL (≈ 75.6 µM); MIC [16]: > 50 µg/mL; MIC (Staphylococcus aureus): 12.5 µg/mL (≈ 14.8 µM); MIC (Streptococcus sp. 80): 12.5 µg/mL (≈ 14.8 µM); ED50 ([25]; C203, mice, oral, read-out: ED50 Oral): 88 mg/kg; ED50 ([25]; C203, sc, mice, subcutaneous, read-out: ED50 Subcutaneous): 10.4 mg/kg
